Values joined by “and” are separate entries in the source; they are usually repeats but may differ in a detail not shown here. Equal values may be shown once. Read-outs that look alike come from different tables or passages of the source.
Tests used:
[1] = biological target: T1, PfATP4^WT (membranes from Dd2-Polδ parasites) (Plasmodium falciparum, UniProt A0A143ZZK9); assay: Membrane ATPase assay, ATP4-associated (Na+-dependent) ATPase activity; assay type: biochemical; settings: for PfATP4-associated ATPase activity (% of control): Dd2-Polδ
T1 sequence (A0A143ZZK9 1-1264): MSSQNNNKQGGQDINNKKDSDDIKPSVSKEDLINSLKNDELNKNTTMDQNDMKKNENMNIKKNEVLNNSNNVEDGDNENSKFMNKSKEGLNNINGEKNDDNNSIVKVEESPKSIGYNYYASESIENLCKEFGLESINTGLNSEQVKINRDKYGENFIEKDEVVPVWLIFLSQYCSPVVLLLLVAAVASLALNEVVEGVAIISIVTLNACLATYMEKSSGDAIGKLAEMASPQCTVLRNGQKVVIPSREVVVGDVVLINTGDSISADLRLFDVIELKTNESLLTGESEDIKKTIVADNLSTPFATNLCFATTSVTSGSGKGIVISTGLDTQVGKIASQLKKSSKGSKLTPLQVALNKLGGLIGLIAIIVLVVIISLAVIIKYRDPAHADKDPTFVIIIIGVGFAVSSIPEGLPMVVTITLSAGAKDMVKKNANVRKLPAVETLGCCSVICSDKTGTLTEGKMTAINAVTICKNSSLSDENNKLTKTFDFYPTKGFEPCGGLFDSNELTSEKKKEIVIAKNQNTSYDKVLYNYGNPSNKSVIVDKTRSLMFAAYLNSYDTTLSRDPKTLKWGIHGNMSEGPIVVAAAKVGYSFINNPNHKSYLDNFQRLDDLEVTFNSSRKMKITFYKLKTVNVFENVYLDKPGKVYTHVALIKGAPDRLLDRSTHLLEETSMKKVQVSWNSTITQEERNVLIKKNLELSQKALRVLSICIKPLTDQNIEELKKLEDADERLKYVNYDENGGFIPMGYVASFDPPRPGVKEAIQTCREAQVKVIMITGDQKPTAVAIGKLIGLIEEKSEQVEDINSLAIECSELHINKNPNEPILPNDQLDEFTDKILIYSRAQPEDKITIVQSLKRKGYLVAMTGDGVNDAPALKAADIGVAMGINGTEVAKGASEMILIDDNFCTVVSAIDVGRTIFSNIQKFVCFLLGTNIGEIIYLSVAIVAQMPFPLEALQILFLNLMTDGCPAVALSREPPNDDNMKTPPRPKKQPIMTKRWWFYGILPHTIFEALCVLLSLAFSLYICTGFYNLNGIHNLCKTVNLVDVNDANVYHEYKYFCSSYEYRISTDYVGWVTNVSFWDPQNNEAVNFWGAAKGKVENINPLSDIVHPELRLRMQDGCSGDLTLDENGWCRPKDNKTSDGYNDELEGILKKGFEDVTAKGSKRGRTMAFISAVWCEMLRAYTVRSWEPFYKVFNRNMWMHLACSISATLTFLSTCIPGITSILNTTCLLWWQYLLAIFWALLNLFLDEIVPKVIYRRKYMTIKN
Experimental: Membranes from isolated P. falciparum or extracellular T. gondii parasites were prepared by lysing parasites in ice-cold deionized water containing a 1:500 dilution of Protease Inhibitor Cocktail Set III (Merck Millipore), then washing the membrane preparation three times in ice-cold deionized water (with protease inhibitors present for the first two washes)[15]. Protein concentrations in the membrane preparations were measured using a Bradford assay. The PiColorLock Gold Phosphate Detection System (Innova Biosciences) was used to measure the production of Pi from hydrolysis of ATP[15]. Membrane preparations were diluted in either a high Na^+ solution (yielding final conditions in the reactions of 150 mM NaCl, 20 mM KCl, 2 mM MgCl2, 50 mM Tris, pH 7.2) or a Na^+-free solution (yielding final conditions of 150 mM choline chloride, 20 mM KCl, 2 mM MgCl2, 50 mM Tris, pH 7.2) to achieve a total protein concentration of 50 μg/mL. […] The reactions were performed at 37 °C, and were initiated by the addition of 1 mM ATP (Na2ATP۰3H2O; MP Biomedicals) and terminated 10 min later by adding 100 μL of reaction mixture (in duplicate) to 25 μL “Gold mix” in a 96-well plate. “Stabiliser” was added 3 min later, and the plates incubated at room temperature in the dark for 60 min before measuring absorbance at 635 nm. Background values (averaged from wells containing all components, but to which ATP was not added until after the membrane was exposed to Gold mix) were subtracted from the data. For each treatment, the ATPase activity associated with the (Na^+-dependent) PfATP4 and TgATP4 proteins was calculated by subtracting data obtained in the low Na^+ condition (containing only the 2 mM Na^+ introduced on addition of 1 mM Na2ATP) from that obtained in the high Na^+ condition.

[2] = tested on: isolated Dd2-Polδ-PfATP4^G358S P. falciparum trophozoites; assay: [Na+]cyt measurement (SBFI), Na+ dysregulation; assay type: cell-based, Plasmodium falciparum; design: Final [Na+]cyt reached: unit not given here
Experimental: The ratio of the fluorescence intensity recorded at 340 nm and 380 nm (with an emission wavelength of 515 nm) was converted to [Na^+]cyt using a calibration procedure that entailed suspending parasites in solutions of varying [Na^+] containing ionophores. Fluorescence measurements and calibrations were performed at 37 °C, either with individual 1 mL suspensions using a PerkinElmer LS 50B fluorescence spectrometer (for resting [Na^+]cyt measurements for which the data are shown in Supplementary Fig. 7) or in 96-well plates using a Tecan Infinite M1000 PRO plate reader with i-control (version 1.12) software (all other [Na^+]cyt measurements).

## N#Cc1cc(NC(=O)[C@H]2c3ccccc3C(=O)N(CC(F)(F)F)[C@@H]2c2cccnc2)ccc1F [(+)-SJ733]
[1]; Dd2-Polδ membranes, MEAN, source data of Table 1 (nM there)
  IC50 for inhibition of ATP4-associated ATPase activity, MEAN: 5.23
[1]; membranes from Dd2-Polδ, mean ± SEM
  IC50 for ATP4-associated ATPase activity: 5.2 ± 2.3 (3) nM
[2]; Dd2-Polδ-PfATP4G358S, [(+)-SJ733] 9.8 nM, MEAN
  Final [Na+]cyt reached: 28.4
[2]; Dd2-Polδ-PfATP4G358S, [(+)-SJ733] 9.8 nM, single experiments
  Final [Na+]cyt reached: 25.4 and 25.6 and 34.3
[2]; Dd2-Polδ-PfATP4G358S, [(+)-SJ733] 19.5 nM, MEAN
  Final [Na+]cyt reached: 28.2
[2]; Dd2-Polδ-PfATP4G358S, [(+)-SJ733] 19.5 nM, single experiments
  Final [Na+]cyt reached: 24.8 and 26.3 and 33.5
[2]; Dd2-Polδ-PfATP4G358S, [(+)-SJ733] 39.1 nM, MEAN
  Final [Na+]cyt reached: 28.7
[2]; Dd2-Polδ-PfATP4G358S, [(+)-SJ733] 39.1 nM, single experiments
  Final [Na+]cyt reached: 26.5 and 26.8 and 32.9
[2]; Dd2-Polδ-PfATP4G358S, [(+)-SJ733] 78.1 nM, MEAN
  Final [Na+]cyt reached: 29.0
[2]; Dd2-Polδ-PfATP4G358S, [(+)-SJ733] 78.1 nM, single experiments
  Final [Na+]cyt reached: 26.6 and 27.0 and 33.4
[2]; Dd2-Polδ-PfATP4G358S, [(+)-SJ733] 156.3 nM, MEAN
  Final [Na+]cyt reached: 28.6
[2]; Dd2-Polδ-PfATP4G358S, [(+)-SJ733] 156.3 nM, single experiments
  Final [Na+]cyt reached: 25.8 and 27.2 and 32.8
[2]; Dd2-Polδ-PfATP4G358S, [(+)-SJ733] 312.5 nM, MEAN
  Final [Na+]cyt reached: 25.7
[2]; Dd2-Polδ-PfATP4G358S, [(+)-SJ733] 312.5 nM, single experiments
  Final [Na+]cyt reached: 25.5 and 26.1 and 32.5 and 18.8
[2]; Dd2-Polδ-PfATP4G358S, [(+)-SJ733] 625 nM, MEAN
  Final [Na+]cyt reached: 26.8
[2]; Dd2-Polδ-PfATP4G358S, [(+)-SJ733] 625 nM, single experiments
  Final [Na+]cyt reached: 26.0 and 26.8 and 34.1 and 20.2
[2]; Dd2-Polδ-PfATP4G358S, [(+)-SJ733] 2500 nM, MEAN
  Final [Na+]cyt reached: 28.2
[2]; Dd2-Polδ-PfATP4G358S, [(+)-SJ733] 2500 nM, single experiments
  Final [Na+]cyt reached: 27.1 and 27.5 and 36.9 and 21.3
[2]; Dd2-Polδ-PfATP4G358S, [(+)-SJ733] 5000 nM, MEAN
  Final [Na+]cyt reached: 30.8
[2]; Dd2-Polδ-PfATP4G358S, [(+)-SJ733] 5000 nM, single experiments
  Final [Na+]cyt reached: 29.9 and 28.6 and 41.3 and 23.6
[2]; Dd2-Polδ-PfATP4G358S, [(+)-SJ733] 10000 nM, MEAN
  Final [Na+]cyt reached: 38.0
[2]; Dd2-Polδ-PfATP4G358S, [(+)-SJ733] 10000 nM, single experiments
  Final [Na+]cyt reached: 34.4 and 33.8 and 55.9 and 28.0
[2]; Dd2-Polδ-PfATP4G358S, [(+)-SJ733] 20000 nM, MEAN
  Final [Na+]cyt reached: 58.1
[2]; Dd2-Polδ-PfATP4G358S, [(+)-SJ733] 40000 nM, MEAN
  Final [Na+]cyt reached: 76.7
[2]; Dd2-Polδ-PfATP4G358S, [(+)-SJ733] 40000 nM, single experiments
  Final [Na+]cyt reached: 88.7 and 92.6 and 48.8
[2]; Dd2-Polδ-PfATP4G358S, single experiments, source data of Table 1 (nM there), read-out: IC50 for Na+ dysregulation
  IC50: > 20000 nM
[2]; Plasmodium falciparum, DD2, 1.5 h, pH 7.1, Dd2-Polδ-PfATP4G358S, ~90 min exposure, 37 °C, pH 7.1, read-out: IC50 for Na+ dysregulation
  IC50: > 10000 nM
[2]; Plasmodium falciparum, DD2, Dd2-Polδ-PfATP4G358S, MEAN, source data of Table 1 (nM there), read-out: IC50 for Na+ dysregulation, MEAN
  IC50: > 10000 nM
[2]; Plasmodium falciparum, DD2, Dd2-Polδ-PfATP4G358S, single experiments, source data of Table 1 (nM there), read-out: IC50 for Na+ dysregulation
  IC50: > 10000 nM

## N#Cc1cc(NC(=O)[C@H]2c3ccccc3C(=O)N(CC(F)(F)F)[C@@H]2c2cccnc2)ccc1F [(+)SJ733]
[1]; [(+)SJ733] 0.122 nM, MEAN
  PfATP4-associated ATPase activity (% of control): 74.2 % of control
[1]; [(+)SJ733] 0.122 nM, single experiments, 0.000122 µM
  PfATP4-associated ATPase activity (% of control): 57.4 % of control and 86.4 % of control and 78.7 % of control
[1]; [(+)SJ733] 0.244 nM, MEAN
  PfATP4-associated ATPase activity (% of control): 71.3 % of control
[1]; [(+)SJ733] 0.244 nM, single experiments, 0.000244 µM
  PfATP4-associated ATPase activity (% of control): 51.9 % of control and 74.9 % of control and 87.1 % of control
[1]; [(+)SJ733] 0.5 nM, MEAN
  PfATP4-associated ATPase activity (% of control): 85.1 % of control
[1]; [(+)SJ733] 1.0 nM, MEAN
  PfATP4-associated ATPase activity (% of control): 59.1 % of control
[1]; [(+)SJ733] 2.0 nM, MEAN
  PfATP4-associated ATPase activity (% of control): 64.2 % of control
[1]; [(+)SJ733] 3.9 nM, MEAN
  PfATP4-associated ATPase activity (% of control): 46.7 % of control
[1]; [(+)SJ733] 7.8 nM, MEAN
  PfATP4-associated ATPase activity (% of control): 32.8 % of control
[1]; [(+)SJ733] 15.6 nM, MEAN
  PfATP4-associated ATPase activity (% of control): 21.9 % of control
[1]; [(+)SJ733] 31.3 nM, MEAN
  PfATP4-associated ATPase activity (% of control): 30.9 % of control
[1]; [(+)SJ733] 62.5 nM, MEAN
  PfATP4-associated ATPase activity (% of control): 7.7 % of control
[1]; [(+)SJ733] 250 nM, MEAN
  PfATP4-associated ATPase activity (% of control): 11.2 % of control
[1]; [(+)SJ733] 500 nM, MEAN
  PfATP4-associated ATPase activity (% of control): -2.6 % of control
[1]; [(+)SJ733] 1000 nM, MEAN
  PfATP4-associated ATPase activity (% of control): -8.2 % of control
[1]; [(+)SJ733] 2000 nM, MEAN
  PfATP4-associated ATPase activity (% of control): 7.9 % of control
[1]; [(+)SJ733] 4000 nM, MEAN
  PfATP4-associated ATPase activity (% of control): -17.1 % of control
[1]; [(+)SJ733] 8000 nM, MEAN
  PfATP4-associated ATPase activity (% of control): -14.6 % of control

— paper PMC9525273 (Nature Communications, 2022)
